How the values were obtained:
IRAK1 = IRAK1 (Homo sapiens (Human), UniProt P51617); assay: Adapta Universal Kinase Assay (ThermoFisher) against IRAK1; assay type: biochemical; settings: IRAK1/Histone H3 (1-20) peptide, 60 minutes at room temperature
Protocol: To measure the IC50 values of the compounds herein against IRAK1, the Adapta Universal Kinase Assay (ThermoFisher) was used. Briefly, 100 nL of different concentrations of the compounds in 100% DMSO were added to each well of a 384-well plate (Corning Cat. #4512). 2.4 μL of 30 mM HEPES, 2.5 μL of 4×ATP solution (in water), and 5 μL of 2× IRAK1/Histone H3 (1-20) peptide mixture (prepared in 50 mM HEPES pH 7.5, 0.01% BRIJ-35, 10 mM MgCl2, 1 mM EGTA) were added to each well. The plate was shaken for 30 seconds and centrifuged for 1 minute at 1000×g. The plate was then incubated at room temperature for 60 minutes. 5 μL of Detection Mix was added to each well. The plate was shaken for 30 seconds and centrifuged for 1 minute at 1000×g. The plate was then incubated at room temperature for 60 minutes. The plate was subsequently read on a fluorescence plate reader, and the emissions ratio was calculated to determine the ratio of ATP to ADP. Emissions Ratio=AF647 Emission (665 nm)/Europium Emission (615 nm).

IRAK4 = IRAK4 (Homo sapiens (Human), UniProt Q9NWZ3); assay: Z'-LYTE assay (ThermoFisher) against IRAK4; assay type: biochemical; settings: IRAK4/Ser/Thr 07, 60 minutes at room temperature
Protocol: To measure the 050 values of compounds herein against IRAK4, a Z′-LYTE assay (ThermoFisher) was used. Briefly, 2.5 μL. of different concentrations of the compounds in 1% DMSO were added to 2.4 μL kinase buffer (50 mM HEPES pH 7.5, 0.01% BRIJ-35, 10 mM MgCl2, 1 mM EGTA) in each well of a 384-well plate (Corning Cat. #3676). 5 μL of 2×IRAK4/Ser/Thr 07 mixture (prepared in 50 mM HEPES pH 7.5, 0.01% BRIJ-35, 10 mM MnCl2, 2 mM OTT, and 0.02% NaN3) and 2.5 μL of 4×ATP solution (4×ATP, 50 mM HEPES, pH 7.5, 0.01% BRIJ-35, 10 mM MgCl2, 1 mM EGTA) were added to each well. The plate was shaken for 30 seconds, and then incubated at room temperature for 60 minutes. 5 μL of a 1:100000 dilution of Development Reagent A was added to each well. The plate was shaken for 30 seconds and incubated for 60 minutes at room temperature. The plate was subsequently read on a fluorescence plate reader, and the emissions ratio was calculated to determine the ratio of Ser/Thr 07 phosphorylated by the reaction. Emissions Ratio=Coumarin Emission (443 nm)/Flourescein Emission (520 nm).

Chain of IRAK1 (P51617 whole entry): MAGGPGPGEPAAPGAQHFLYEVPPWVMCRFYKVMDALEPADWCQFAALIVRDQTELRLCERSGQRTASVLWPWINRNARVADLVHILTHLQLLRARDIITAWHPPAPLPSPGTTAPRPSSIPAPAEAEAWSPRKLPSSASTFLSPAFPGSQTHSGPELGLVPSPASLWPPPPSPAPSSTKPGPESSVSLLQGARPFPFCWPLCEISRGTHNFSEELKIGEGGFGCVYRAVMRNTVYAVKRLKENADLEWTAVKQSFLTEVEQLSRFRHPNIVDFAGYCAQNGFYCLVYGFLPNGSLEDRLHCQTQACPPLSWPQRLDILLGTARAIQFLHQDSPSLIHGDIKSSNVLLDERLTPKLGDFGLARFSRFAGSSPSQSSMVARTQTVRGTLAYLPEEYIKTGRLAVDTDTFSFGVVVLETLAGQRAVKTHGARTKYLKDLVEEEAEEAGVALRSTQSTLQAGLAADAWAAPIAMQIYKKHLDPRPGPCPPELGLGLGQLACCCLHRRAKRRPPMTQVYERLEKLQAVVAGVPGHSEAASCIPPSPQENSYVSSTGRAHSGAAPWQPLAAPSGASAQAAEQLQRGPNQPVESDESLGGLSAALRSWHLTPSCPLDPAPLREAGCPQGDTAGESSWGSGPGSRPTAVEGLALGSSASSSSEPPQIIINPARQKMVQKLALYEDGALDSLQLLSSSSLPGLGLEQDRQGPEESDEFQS
Chain of IRAK4 (Q9NWZ3 whole entry): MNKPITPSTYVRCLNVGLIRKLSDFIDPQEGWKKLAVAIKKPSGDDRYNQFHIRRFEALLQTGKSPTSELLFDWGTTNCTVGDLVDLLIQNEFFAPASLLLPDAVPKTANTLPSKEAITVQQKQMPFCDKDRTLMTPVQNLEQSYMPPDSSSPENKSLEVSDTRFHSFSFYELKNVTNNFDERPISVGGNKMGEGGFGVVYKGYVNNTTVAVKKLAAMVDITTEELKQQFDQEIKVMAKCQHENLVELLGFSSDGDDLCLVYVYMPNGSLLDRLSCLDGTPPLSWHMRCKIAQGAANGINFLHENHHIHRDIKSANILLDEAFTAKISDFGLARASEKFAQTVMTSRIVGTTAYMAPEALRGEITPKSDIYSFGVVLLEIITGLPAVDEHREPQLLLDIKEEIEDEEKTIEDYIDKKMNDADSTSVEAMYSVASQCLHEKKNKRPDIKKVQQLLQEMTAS

| Structure (SMILES) | IC50 (IRAK1) | IC50 (IRAK4) |
| --- | --- | --- |
| C=CC(=O)N[C@H]1C[C@@H](C(=O)Nc2ccc(NC(=O)c3cccc(-c4ccn[nH]4)n3)nc2)CN(C)C1 [Compound 013, N-(5-((3R,5S)-5-acrylamido-1-methylpiperidine-3-carboxamido)pyridin-2-yl)-6-(1H-pyrazol-5-yl)picolinamide] | 18.5 nM | > 10 µM |
| C=CC(=O)N1CCC[C@@H](C(=O)Nc2ccc(NC(=O)c3cccc(-c4ccn[nH]4)n3)cc2F)C1 [Compound 033, (R)-N-(4-(1 acryloylpiperidine-3-carboxamido)-3-fluorophenyl)-6-(1H-pyrazol-5-yl)picolinamide] | 74.2 nM | 2.51 µM |
| C=CC(=O)N1CC2(CC(n3cc(-c4ccc(NC(=O)c5cccc(-c6cnoc6)n5)nc4)nn3)C2)C1 [Compound 024, N-(5-(1-(2-acryloyl-2-azaspiro[3,3]heptan-6-yl)-1H-1,2,3-triazol-4-yl)pyridin-2-yl)-6-(isoxazol-4-yl)picolinamide] | 612 nM | 3.33 µM |
| C=CC(=O)N1CCC[C@H](C(=O)Nc2ccc(NC(=O)c3cccc(-c4cnoc4)n3)cc2F)C1 [Compound 032, (S)-N-(4-(1-acryloylpiperidine-3-carboxamido)-3-fluorophenyl)-6-(isoxazol-4-yl)picolinamide] | 1190 nM | > 10 µM |
| C=CC(=O)N[C@@H]1CCCC(C(=O)Nc2ccc(NC(=O)c3cccc(-c4ccn[nH]4)n3)cc2C)C1 (stereo partly shown) [Compound 003] | 671 nM | > 10 µM |
| C=CC(=O)N[C@H]1C[C@@H](C(=O)Nc2ccc(NC(=O)c3cccc(-c4ccn[nH]4)n3)nc2)CN(CC(F)(F)F)C1 [Compound 038, N-(5-((3R,5S)-5-acrylamido-1-(2,2,2-trifluoroethyl)piperidine-3-carboxamido)pyridin-2-yl)-6-(1H-pyrazol-5-yl)picolinamide] | 12.1 nM | > 10 µM |
| C=CC(=O)N[C@@H]1CNCC(C(=O)Nc2ccc(NC(=O)c3cccc(-c4ccn[nH]4)n3)cc2F)C1 (stereo partly shown) [Compound 007] | 150 nM | > 10 µM |
| C=CC(=O)N[C@H]1C[C@@H](C(=O)Nc2ccc(NC(=O)c3cccc(-c4ccn[nH]4)n3)nc2)CN(CC(F)F)C1 [Compound 039, N-(5-((3R,5S)-5-acrylamido-1-(2,2-difluorethyl)piperidine-3-carboxamido)pyridin-2-yl)-6-(1H-pyrazol-5-yl)picolinamide] | 14.9 nM | > 10 µM |
| C=CC(=O)N[C@@H]1CCC[C@H](C(=O)Nc2ccc(NC(=O)c3cccc(-c4ccn[nH]4)n3)cc2)C1 [Compound 026, N-(4-((1 S,3R)-3-acrylamidocyclohexane-1-carboxamido)phenyl)-6-(1H-pyrazol-5-yl)-picolinamide] | 68.1 nM | > 10 µM |
| C=CC(=O)N1CCC[C@@H](C(=O)Nc2ccc(NC(=O)c3cccc(-c4cnoc4)n3)cc2F)C1 [Compound 034, (R)-N-(4-(1-acryloylpiperidine-3-carboxamido)-3-fluorophenyl)66-(isoxazol-4-yl)picolinamide] | 344 nM | 2.01 µM |
| C=CC(=O)N1CCC[C@H](C(=O)Nc2ccc(NC(=O)c3cccc(-c4ccn[nH]4)n3)cc2F)C1 [Compound 031, (S)-N-(4-(1-acryloylpiperidine-3-carboxamido)-3-fluorophenyl)-6-(1H-pyrazol-5-yl)picolinamide] | 40.1 nM | 1.11 µM |
| C=CC(=O)N[C@@H]1CNC[C@H](C(=O)Nc2ccc(NC(=O)c3cccc(-c4ccn[nH]4)n3)nc2)C1 [Compound 006, N-(5-((3R,5S)-5-acrylamidopiperidine-3-carboxamido)pyridin-2-yl)-6-(1H-pyrazol-5-yl)-picolinamide] | 14 nM | 4 µM |

Continued by falling IC50 (IRAK1), values first:

| IC50 (IRAK1) | IC50 (IRAK4) | Structure (SMILES) |
| --- | --- | --- |
| 658 nM | > 10 µM | C=CC(=O)N1CCC[C@H](C(=O)Nc2ccc(NC(=O)c3cccc(-c4cnoc4)n3)nc2)C1 [Compound 029, (S)-N-(5-(1-acryloylpiperidine-3-carboxamido)pyridin-2-yl)-6-(isoxazol-4-yl)picolinamide] |
| 399 nM | 3.33 µM | C=CC(=O)N1CCC[C@@H](C(=O)Nc2ccc(NC(=O)c3cccc(-c4cnoc4)n3)nc2)C1 [Compound 030, (R)-N-(5-(1-acryloylpiperidine-3-carboxamido)pyridin-2-yl)-6-(isoxazol-4-yl)picolinamide] |
| 301 nM | 9.93 µM | C=CC(=O)NC12CC(C(=O)Nc3ccc(NC(=O)c4cccc(-c5ccn[nH]5)n4)cc3F)(C1)C2 [Compound 016] |
| 257 nM | > 10 µM | C=CC(=O)N[C@@H]1CCC[C@H](C(=O)Nc2ccc(NC(=O)c3cccc(-c4ccn[nH]4)n3)nc2)C1 [Compound 002, N-(5-((1S,3R)-3-acrylamidocyclohexane-1-carboxamido)pyridin-2-yl)-6-(1H-pyrazol-5-yl)-picolinamide] |
| 189 nM | > 10 µM | C=CC(=O)N[C@H]1CCCC(C(=O)Nc2ccc(NC(=O)c3cccc(-c4ccn[nH]4)n3)nc2)C1 (stereo partly shown) [Compound 005] |
| 129 nM | > 10 µM | C=CC(=O)N[C@@H]1CCCC(C(=O)Nc2ccc(NC(=O)c3cccc(-c4ccn[nH]4)n3)cc2F)C1 (stereo partly shown) [Compound 001] |
| 12.5 nM | 0.722 µM | C=CC(=O)N1CCC[C@@H](C(=O)Nc2ccc(NC(=O)c3cccc(-c4ccn[nH]4)n3)nc2)C1 [Compound 028, (R)-N-(5-(1-acryloylpiperidine-3-carboxamido)pyridin-2-yl)-6-(1H-pyrazol-5-yl)picolinamide] |
| 6.37 nM | 1.87 µM | C=CC(=O)N1CCC[C@H](C(=O)Nc2ccc(NC(=O)c3cccc(-c4ccn[nH]4)n3)nc2)C1 [Compound 027, (S)-N-(5-(1-acryloylpiperidine-3-carboxamido)pyridin-2-yl)-6-(1H-pyrazol-5-yl)picolinamide] |

— patent US20240043405A1, “POTENT AND SELECTIVE IRREVERSIBLE INHIBITORS OF IRAK1” (Dana-Farber Cancer Institute, Inc., priority 2020, published 2024)
